In patent US8273754B2, “Substituted 1H-pyrazolo[3,4-D]pyrimidine-6-amine compounds” (ArQule, Inc., priority 2008, dated 2012):
Where two headings read alike, the source gives them in different places.

Tested on: cancer cells
Assay: MTS cell growth inhibition assay (72 hours)
Type: cell-based
Outline: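 Growth inhibition read as formazan absorbance at 492 nm after 4 h MTS/PMS, following 72 h compound exposure at 37 °C in 1% FBS DMEM (cells pre-seeded 18 h). IC50 = 50% absorbance reduction; inhibition graded in bands.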

[1] = Homo sapiens, DLD-1, 72 h, DLD-1 cells, read-out: DLD-1 MTS 72 hr at 10 μM
[2] = Homo sapiens, KATO III, 72 h, KATO III cells, read-out: KATO III MTS 72 hr at 10 μM
[3] = Homo sapiens, MDA-MB-231, 72 h, MDA-MB-231 cells, read-out: MDA-MB-231 MTS 72 hr at 10 μM
[4] = Homo sapiens, NCI-H1299, 72 h, NCI-H1299 cells, read-out: NCI-H1299 MTS 72 hr at 10 μM
[5] = PaCa-2, 72 h, PACA-2 cells, read-out: PACA-2 MTS 72 hr at 10 μM

Structure (SMILES) | inhibition at 10 µM [1] [%] | inhibition at 10 µM [2] [%] | inhibition at 10 µM [3] [%] | inhibition at 10 µM [4] [%] | inhibition at 10 µM [5] [%]
Nc1nc(NC2Cc3ccccc3N(C(=O)c3cc(Cl)cc(Cl)c3)C2)c2cn[nH]c2n1 (stereo not drawn) [Compound 90, (3-(6-amino-1H-pyrazolo[3,4-d]pyrimidin-4-ylamino)-3,4-dihydroquinolin-1(2H)-yl)(3,5-dichlorophenyl)methanone] | > 79 | > 79 | > 79 | > 79 | > 79
Cc1ccc(Oc2ccc(S(=O)(=O)N3CC(Nc4nc(N)nc5[nH]ncc45)Cc4ccccc43)cc2)cc1 (stereo not drawn) [Compound 69, N4-(1-(4-(p-tolyloxy)phenylsulfonyl)-1,2,3,4-tetrahydroquinolin-3-yl)-1H-pyrazolo[3,4-d]pyrimidine-4,6-diamine] | > 79 | > 79 | > 79 | > 79 | > 79
Nc1nc(NC2CCN(S(=O)(=O)c3ccc4c(c3)OCCO4)c3ccccc3C2)c2cn[nH]c2n1 (stereo not drawn) [Compound 165, N4-[1-(2,3-dihydro-1,4-benzodioxin-6-ylsulfonyl)-2,3,4,5-tetrahydro-1H-1-benzazepin-4-yl]-1H-pyrazolo[3,4-d]pyrimidine-4,6-diamine] | < 50 | < 50 | < 50 | < 50 | < 50
Nc1nc(NC2Cc3ccccc3N(S(=O)(=O)c3ccc(NC(=O)Nc4ccc5c(c4)Cc4ccccc4-5)cc3)C2)c2cn[nH]c2n1 (stereo not drawn) [Compound 198, 1-[4-({3-[(6-amino-1H-pyrazolo[3,4-d]pyrimidin-4-yl)amino]-3,4-dihydroquinolin-1(2H)-yl}sulfonyl)phenyl]-3-(9H-fluoren-2-yl)urea] | > 79 | > 79 | < 50 | > 79 | < 50
Nc1nc(NC2Cc3ccccc3N(Cc3cn(-c4ccccc4)nc3-c3ccccc3)C2)c2cn[nH]c2n1 (stereo not drawn) [Compound 151, N4-{1-[(1,3-diphenyl-1H-pyrazol-4-yl)methyl]-1,2,3,4-tetrahydroquinolin-3-yl}-1H-pyrazolo[3,4-d]pyrimidine-4,6-diamine] | > 79 | > 79 | < 50 | < 50 | > 79
Nc1nc(NC2Cc3ccccc3N(Cc3ccccc3OCc3c(Cl)cccc3Cl)C2)c2cn[nH]c2n1 (stereo not drawn) [Compound 152, N4-(1-{2-[(2,6-dichlorobenzyl)oxy]benzyl}-1,2,3,4-tetrahydroquinolin-3-yl)-1H-pyrazolo[3,4-d]pyrimidine-4,6-diamine] | > 79 | 50 to 79 | 50 to 79 | < 50 | < 50
CS(=O)(=O)c1ccc(CN2CC(Nc3nc(N)nc4[nH]ncc34)Cc3ccccc32)cc1 (stereo not drawn) [Compound 139, N4-{1-[4-(methylsulfonyl)benzyl]-1,2,3,4-tetrahydroquinolin-3-yl}-1H-pyrazolo[3,4-d]pyrimidine-4,6-diamine] | > 79 | > 79 | < 50 | < 50 | 50 to 79
COc1ccc(CCNC(=O)N2CC(Nc3nc(N)nc4[nH]ncc34)Cc3ccccc32)cc1OC (stereo not drawn) [Compound 109, 3-(6-amino-1H-pyrazolo[3,4-d]pyrimidin-4-ylamino)-N-(3,4-dimethoxyphenethyl)-3,4-dihydroquinoline-1(2H)-carboxamide] | < 50 | < 50 | < 50 | < 50 | < 50
Nc1nc(NC2CCN(S(=O)(=O)c3ccc(C(F)(F)F)cc3)c3ccccc3C2)c2cn[nH]c2n1 (stereo not drawn) [Compound 186, N4-(1-{[4-(trifluoromethyl)phenyl]sulfonyl}-2,3,4,5-tetrahydro-1H-1-benzazepin-4-yl)-1H-pyrazolo[3,4-d]pyrimidine-4,6-diamine] | < 50 | < 50 | < 50 | < 50 | < 50
Cc1ccccc1-n1ncc(CN2CC(Nc3nc(N)nc4[nH]ncc34)Cc3ccccc32)c1C (stereo not drawn) [Compound 161, N4-(1-{[5-methyl-1-(2-methylphenyl)-1H-pyrazol-4-yl]methyl}-1,2,3,4-tetrahydroquinolin-3-yl)-1H-pyrazolo[3,4-d]pyrimidine-4,6-diamine] | < 50 | < 50 | < 50 | < 50 | < 50
Nc1nc(NC2Cc3ccccc3N(S(=O)(=O)c3cccc(NC(=O)Nc4cccc(C(F)(F)F)c4)c3)C2)c2cn[nH]c2n1 (stereo not drawn) [Compound 199, 1-[3-({3-[(6-amino-1H-pyrazolo[3,4-d]pyrimidin-4-yl)amino]-3,4-dihydroquinolin-1(2H)-yl}sulfonyl)phenyl]-3-[3-(trifluoromethyl)phenyl]urea] | > 79 | > 79 | > 79 | > 79 | > 79
Nc1nc(NC2Cc3ccccc3N(S(=O)(=O)c3cccc(NC(=O)Nc4ccc5c(c4)CCC5)c3)C2)c2cn[nH]c2n1 (stereo not drawn) [Compound 214, 1-[3-({3-[(6-amino-1H-pyrazolo[3,4-d]pyrimidin-4-yl)amino]-3,4-dihydroquinolin-1(2H)-yl}sulfonyl)phenyl]-3-(2,3-dihydro-1H-inden-5-yl)urea] | > 79 | > 79 | > 79 | 50 to 79 | > 79
Nc1nc(NC2Cc3ccccc3N(C(=O)COc3cccc(Cl)c3)C2)c2cn[nH]c2n1 (stereo not drawn) [Compound 93, 1-(3-(6-amino-1H-pyrazolo[3,4-d]pyrimidin-4-ylamino)-3,4-dihydroquinolin-1(2H)-yl)-2-(3-chlorophenoxy)ethanone] | < 50 | < 50 | < 50 | < 50 | < 50
Nc1nc(NC2Cc3ccccc3N(S(=O)(=O)c3ccc(OC(F)(F)F)cc3)C2)c2cn[nH]c2n1 (stereo not drawn) [Compound 68, N4-(1-(4-(trifluoromethoxy)phenylsulfonyl)-1,2,3,4-tetrahydroquinolin-3-yl)-1H-pyrazolo[3,4-d]pyrimidine-4,6-diamine] | < 50 | < 50 | < 50 | < 50 | < 50
Nc1nc(NC2Cc3ccccc3N(Cc3ccccc3-c3ccc(F)cc3)C2)c2cn[nH]c2n1 (stereo not drawn) [Compound 159, N4-{1-[(4′-fluorobiphenyl-2-yl)methyl]-1,2,3,4-tetrahydroquinolin-3-yl}-1H-pyrazolo[3,4-d]pyrimidine-4,6-diamine] | < 50 | < 50 | < 50 | < 50 | < 50
Nc1nc(NC2CCN(S(=O)(=O)c3ccccc3)c3ccccc3C2)c2cn[nH]c2n1 (stereo not drawn) [Compound 166, N^4-(1-(phenylsulfonyl)-2,3,4,5-tetrahydro-1H-benzo[b]azepin-4-yl)-1H-pyrazolo[3,4-d]pyrimidine-4,6-diamine] | < 50 | < 50 | < 50 | < 50 | < 50
Cc1ccc(C)c(S(=O)(=O)N2CCC(Nc3nc(N)nc4[nH]ncc34)Cc3ccccc32)c1 (stereo not drawn) [Compound 184, N4-{1-[(2,5-dimethylphenyl)sulfonyl]-2,3,4,5-tetrahydro-1H-1-benzazepin-4-yl}-1H-pyrazolo[3,4-d]pyrimidine-4,6-diamine] | < 50 | < 50 | < 50 | < 50 | < 50
Nc1nc(NC2CCN(S(=O)(=O)c3ccsc3)c3ccccc3C2)c2cn[nH]c2n1 (stereo not drawn) [Compound 167, N4-[1-(3-thienylsulfonyl)-2,3,4,5-tetrahydro-1H-1-benzazepin-4-yl]-1H-pyrazolo[3,4-d]pyrimidine-4,6-diamine] | < 50 | < 50 | < 50 | < 50 | < 50
COc1cc(F)ccc1CN1CC(Nc2nc(N)nc3[nH]ncc23)Cc2ccccc21 (stereo not drawn) [Compound 141, N4-[1-(4-fluoro-2-methoxybenzyl)-1,2,3,4-tetrahydroquinolin-3-yl]-1H-pyrazolo[3,4-d]pyrimidine-4,6-diamine] | > 79 | > 79 | > 79 | > 79 | > 79
Nc1nc(NC2Cc3ccccc3N(C(=O)CCc3ccccc3)C2)c2cn[nH]c2n1 (stereo not drawn) [Compound 102, 1-(3-(6-amino-1H-pyrazolo[3,4-d]pyrimidin-4-ylamino)-3,4-dihydroquinolin-1(2H)-yl)-3-phenylpropan-1-one] | < 50 | < 50 | < 50 | < 50 | < 50
COc1ccc(-c2ccc(S(=O)(=O)N3CC(Nc4nc(N)nc5[nH]ncc45)Cc4ccccc43)cc2)cc1 (stereo not drawn) [Compound 60, N4-(1-(4′-methoxybiphenyl-4-ylsulfonyl)-1,2,3,4-tetrahydroquinolin-3-yl)-1H-pyrazolo[3,4-d]pyrimidine-4,6-diamine] | < 50 | < 50 | < 50 | < 50 | < 50
